Experimental data taken from US20090253745A1, “MODULATORS OF OCULAR OXIDATIVE STRESS” (SIRION THERAPEUTICS, INC., priority 2007, published 2009).
“Also recorded” adds a separate entry of the source.

How the values were obtained:
in vitro = in vitro ADME; details: mouse; 1 mM TAPP1, anterior segments of twelve eyeglobes in 0.5 ml MEM, 37° C.; read-out: half-life of hydrolysis
Protocol: FIG. 2. In vitro hydrolysis of TAPP1 by anterior segments from mouse eyeglobes. Anterior segments were isolated from twelve wild-type mouse eyeglobes, and cultured in 0.5 ml of MEM media. TAPP1 was added to the culture to a final concentration of 1 mM, and the sample was incubated at 37° C. At 0, 1, 5, 15, 30, 60 and 120 min following incubation, 20 μl aliquot samples were removed from the culture. The aliquots were mixed with equal volume of ice-cold methanol, and incubated on ice for 10 min, followed by centrifugation at 25,000 g to precipitate proteins. TAPP1 content in the supernatant was analyzed by a capillary reverse phase C18 column. The relative quantity of TAPP1 was determined by integration of chromatographic peak area. […] Release of the two products of TAPP1 hydrolysis (designated HP-1 and HP-2) was […] to the rate of TAPP1 hydrolysis (not shown). Corneal esterases may be largely responsible for the hydrolysis of TAPP1.
The compound TAPP1 (C18H24N4O3), MW 344.18, is formulated as described above. A 40 mM solution of TAPP1 is used. […] TAPP content of the supernatant is analyzed by a capillary reverse phase C18 column. […] The relative quantity of the TAPP is determined by area integration of the TAPP elution peak. […] Isoprostanes are measured with a commercially available in vitro assay kit.

eyeglobes of mice = assay: Ex vivo lens toxicity test, whole eyeglobes cultured overnight; details: overnight incubation, media containing 45% β-cyclodextrin, 37° C.
Protocol: FIG. 3. Ex vivo lens toxicity test of TAPP1. The eyeglobes of mice (aged 42 days) were cultured overnight either with control solution (media containing 45% β-cyclodextrin) or TAPP1 (TAPP1 in media containing 45% β-cyclodextrin), at 37° C. overnight, and in 95% air/5% CO2. […] To determine the effects of TAPP1 on isolated lenses, intact lenses were dissected from wild-type mouse eyeglobes, and incubated in DMEM media in a 96 well tissue culture plate. Groups of 3-6 lenses were incubated in 200 μl of media alone (negative control), 4% (2-hydroxypropyl)-β-cyclodextrin (carrier control), 8 mM hydrogen peroxide (H2O2, positive control for lens toxicity), 4 mM TAPP1-O (free radical form), 4 mM TAPP1-R (reduced form), and 4 mM of the two products of TAPP1-R hydrolysis (HP-1 and HP-2), respectively. β-cyclodextrin was included as a carrier control because all of the stock solutions contained 45% (2-hydroxypropyl)-β-cyclodextrin. The samples were incubated in 5% CO2 incubator at 37 C for 2 days.
The TAPP compositions are intended for topical delivery to the anterior portion of the eye. […] Morphological or anatomical effects are determined by comparison of TAPP-treated samples to samples incubated with either the TAPP vehicle or samples which are exposed (10 min treatment) to 100% ethanol (a positive control for lens toxicity). […]

SOD1 mutant mice = assay: Fluorescein angiography: hypopigmentation and integrity of retinal vessels in SOD1 mutant mice; format: in vivo, mouse
Protocol: FIG. 10. TAPP1 improves integrity of retinal vessels in SOD1 mutant mice. A late stage pathology which has been documented in SOD1 mutant mice is choroidal neovascularization (CNV). This pathology is detected by fluorescein angiography. In this technique, a fluorescent dye (fluorescein) is injected into mice and the flow of this dye through vessels of the retina is monitored using a specialized fundus camera. Leakage of the dye outside the retinal vessels indicates compromised vessel integrity and/or CNV. SOD1 mutant mice (aged 6 months) which have been administered the TAPP1 vehicle (treatment protocol is described above) show a prominent area of dye leakage in the area surrounding the optic disc (indicated by arrow).
A Zeiss FF3 fundus camera with a camera back containing a barrier filter for fluorescein angiography (FA) is used. Animals are placed in a restraint built onto the fundus camera and injected with 25% sodium fluorescein (0.01 ml in sterile saline per 5-6 gm of body weight, i.p.). Immediately following the injection, a timer on the camera back is engaged so that elapsed time in seconds is recorded for each picture. The fluorescein images are recorded on Fujichrome Velvia RVP 100 color slide film.

CC1(C)CC(OC(=O)c2cc(-c3ccncc3)n[nH]2)CC(C)(C)N1[O] [TAPP1, 1-oxyl-2,2,6,6-tetramethylpiperidin-4-yl 3-(pyridin-4-yl)-1H-pyrazole-5-carboxylate]
half-life (in vitro): ~10 min
cataract or other overt toxicity in eyeglobes (eyeglobes of mice): no cataract or other overt toxicity
fluorescein dye leakage around the optic disc (integrity of retinal vessels) (SOD1 mutant mice; SOD1 mutant mice aged 6 months, TAPP1 eye drops versus vehicle): no dye leakage; also recorded: reduced dye leakage
severity of hypopigmentation (SOD1 mutant mice; SOD mutant mice aged 186 days, TAPP1 eye drops): reduces the severity of hypopigmentation
